Source: patent US4464383A, “Immunomodulator containing trithiazole pentamethine cyanine derivative” (priority 1981, dated 1984)
Like-named read-outs stand apart in the source and are kept apart here.

How the values were obtained:
Acute toxicity (LD50) = conditions: mouse, in vivo, mice, 7 days observation
Description: Eight male ddY mice 5 to 6 weeks old weighing 25 to 30 g. were used as one group. A 5% suspension of the compound to be tested in gum arabic was administered intraperitoneally, intravenously or orally using a stomach tube. The animals were kept under observation for 7 days. The numbers of dead animals were counted and the LD50 values were calculated by the Van der Warden method.

[1] = Inhibition of adjuvant arthritis in rat, preventive effect (paw volume); type: in vivo, SD rats
Description: (§1) Five SD rats 7 to 8 weeks old weighing about 150 g. were used as one group. A dispersion of mycobacterium butyricium in liquid parrafin in a concentration of 12 mg./ml. was injected intracutaneously into the footpad of the right hind foot in a dose of 0.05 ml./rat to cause an adjuvant arthritis (AA). For 30 days after the injection of the adjuvant, the volume of both hind feet was measured by a mercury plethysmography and AA was estimated from the obtained measurements.
(§2) With respect to Compound Nos. 1, 3 and 10, the preventive effect on AA was examined. The oral administration of the compound to be tested was begun at the same time as the administration of the adjuvant and continued for 30 days once a day. The same test was carried out with D-penicillamine and Levamisole.

Clinical test, Case 2 = type: in vivo, patient
Clinical test, Case 1 = type: in vivo, patient; conditions: 50 μg. once a day, oral
[2] = Pharmacological activities and side-effects, general statements
[3] = Effect on carrageenan-induced edema in rat; type: in vivo, SD rats; conditions: dose 0.005 to 0.05 μg./animal, oral, 30 minutes before carrageenan
Description: Five SD rats 7 to 8 weeks old weighing about 150 g. were used as one group. A 1% dispersion of carrageenan was injected intracutaneously into the foot pad of the right hind foot in a dose of 0.1 ml./rat. For 6 hours after the injection, the volume of the foot subjected to the injection was measured by a mercury plethysmography and the carrageenan-induced edema was estimated from the obtained measurements. Compound No. 3 was orally administered 30 minutes before the injection of the carrageenan dispersion.

[4] = prior art; cited from earlier work
[5] = Change in body weight of rat with adjuvant arthritis; type: in vivo, SD rats; conditions: D-penicillamine or Levamisole; 1st, 10th, 20th and 30th day
Description: as §1, §2
During the test of the preventive effect on AA as described in the above (1), the body weight of each rat was measured on 1st, 10th, 20th, and 30th day.

[6] = dose 0.05 μg./animal, oral, once a day for 30 days
[7] = 100 μg. once a day, oral, after 5 days
[8] = after 3 weeks, twice a week after 7 days, oral
[9] = dose 1.5 mg./animal (even at a higher dose)

CCCCCCCCCCCCN1C(C)=CSC1=CC=C(C=Cc1scc(C)[n+]1CCCCCCCCCCCC)c1scc(C)[n+]1CCCCCCCCCCCC [compound 10]
LD50 at 168 h (Acute toxicity (LD50); ip, i.p., read-out: LD50 i.p.): 300 mg/kg | LD50 at 168 h (Acute toxicity (LD50); iv, i.v., read-out: LD50 i.v.): 45.2 mg/kg | LD50 at 168 h (Acute toxicity (LD50); po, p.o., read-out: LD50 p.o.): > 1400 mg/kg | inhibition of AA, preventive effect [1, 6]: inhibit AA

CC1=CSC(=CC=C(C=Cc2scc(C)[n+]2C)c2scc(C)[n+]2C)N1C [compound 1]
LD50 at 168 h (Acute toxicity (LD50); ip, i.p., read-out: LD50 i.p.): 23.4 mg/kg | LD50 at 168 h (Acute toxicity (LD50); iv, i.v., read-out: LD50 i.v.): 6.25 mg/kg | LD50 at 168 h (Acute toxicity (LD50); po, p.o., read-out: LD50 p.o.): > 1400 mg/kg | inhibition of AA, preventive effect [1, 6]: inhibit AA

CCCCCCCN1C(C)=CS\C1=C/C=C(/C=C/c1scc(C)[n+]1CCCCCCC)c1scc(C)[n+]1CCCCCCC
systemic malaise and stiffness in the morning (Clinical test, Case 2; 100 μg. once a day, oral, after 3 days): relieved | inflammation at the joints (Clinical test, Case 2; [7]): relieved | need for suppository of Indometacin (Clinical test, Case 2; [7]): no necessity for administering the suppository of Indometacin | sleep (Clinical test, Case 2; [7]): became to sleep well | side-effect (Clinical test, Case 2; 100 μg., oral): No side-effect was observed | ability to walk (Clinical test, Case 2; [8]): became to be able to walk | swelling (hydrocele) at the joints (Clinical test, Case 2; [8]): improved | side-effect (Clinical test, Case 1): no side-effect | therapeutic effect (Clinical test, Case 1): excellent therapeutic effect | inflammation at wrist articulatio coxae and violent pain (Clinical test, Case 1; after 5 days): almost removed | stiffness in the morning and systemic malaise (Clinical test, Case 1; after 5 days): relieved | mobility (Clinical test, Case 1; morning of the seventh day): could arise from a sickbed and go down the stairs with ease | side-effects ([2]; cytotoxicity (e.g. granulocytopenia), vomiting, nausea, pyrexia, rash and myasthenia): does not have side-effects | immunomodulating action ([2]; immunological function enhanced): shows an immunosuppressive effect | immunomodulating action ([2]; immunological function lowered): shows an immunological activating effect | immunomodulating action ([2]; normal immunological function): has no influence on the normal immunological function | LD50 at 168 h (Acute toxicity (LD50); ip, i.p., read-out: LD50 i.p.): 100 mg/kg | LD50 at 168 h (Acute toxicity (LD50); iv, i.v., read-out: LD50 i.v.): 12 mg/kg | LD50 at 168 h (Acute toxicity (LD50); po, p.o., read-out: LD50 p.o.): > 1400 mg/kg | anti-inflammatory action on carrageenan-induced edema [3]: did not show anti-inflammatory action | known pharmacological activities [4]: antibacterial activity, the acceleration of wound healing, the stimulation of reticular hematopoietic organ and endocrine organ, and the enhancement of antibody formation | inhibition of AA, preventive effect ([1]; dose 0.005 μg./animal, oral, once a day for 30 days): inhibited AA | inhibition of AA, preventive effect [1, 6]: inhibit AA

c1ccc([C@H]2CN3CCSC3=N2)cc1 [Levamisole]
change in body weight compared with Control [5]: no significant difference | toxicity of known immunomodulators [4]: severe toxicities | inhibition of AA, preventive effect [1, 9]: do not inhibit AA

CC(C)(S)[C@@H](N)C(=O)O [D-penicillamine]
change in body weight compared with Control [5]: no significant difference | toxicity of known immunomodulators [4]: severe toxicities | inhibition of AA, preventive effect [1, 9]: do not inhibit AA

CCCCN1C(C)=CSC1=CC=C(C=Cc1scc(C)[n+]1CCCC)c1scc(C)[n+]1CCCC [compound 2]
LD50 at 168 h (Acute toxicity (LD50); ip, i.p., read-out: LD50 i.p.): 51 mg/kg | LD50 at 168 h (Acute toxicity (LD50); iv, i.v., read-out: LD50 i.v.): 8.5 mg/kg | LD50 at 168 h (Acute toxicity (LD50); po, p.o., read-out: LD50 p.o.): > 1400 mg/kg

COc1ccc2c(c1)c(CC(=O)O)c(C)n2C(=O)c1ccc(Cl)cc1 [Indometacin, reference compound]
side-effect of the medicines used before (Clinical test, Case 2; human, in vivo): gastric ulcer, urticaria and diarrhea | condition of the patient on previous treatment (Clinical test, Case 2; suppository of Shiozol and that of Indometacin, before Compound No. 3): took a turn for the worse

CCCCCCCCN1C(C)=CS\C1=C/C=C(/C=C/c1scc(C)[n+]1CCCCCCCC)c1scc(C)[n+]1CCCCCCCC
LD50 at 168 h (Acute toxicity (LD50); ip, i.p., read-out: LD50 i.p.): 120 mg/kg | LD50 at 168 h (Acute toxicity (LD50); iv, i.v., read-out: LD50 i.v.): 13.5 mg/kg | LD50 at 168 h (Acute toxicity (LD50); po, p.o., read-out: LD50 p.o.): > 1400 mg/kg

O=C([O-])c1ccccc1Nc1cc(Cl)ccc1C(=O)[O-].[Na+].[Na+] [CCA, N-(2-carboxyphenyl)-4-chloroanthranilic acid disodium salt]
toxicity of known immunomodulators [4]: severe toxicities
